These results are taken from patent US7319103B2, “Non-imidazole tertiary amines as histamine 3 receptor inhibitors for the treatment of cognitive and sleep disorders, obesity and other CNS disorders” (Athersys, Inc., priority 2004, dated 2008).

Molecules are shown by their SMILES. pKi: −log10 of the molar value.

Test [1] concerns the target T1, human H3 receptor (Homo sapiens, UniProt Q9Y5N1).
T1 construct: Expression of this receptor was provided by utilization of the RAGE methodology; endogenous in cells; host or cells: HT1080 (human fibrosarcoma) cells, H3 expression switched on by RAGE; co-transfected with chimeric G-protein Gqαi5
Briefly: Radioligand competition binding assay, human H3 receptor (HT1080 cell membranes). The following applies: competition binding vs [3H]Nα-methylhistamine (~2 nM), membranes of HT1080 cells expressing human H3 receptor. On the procedure:
(§1) Representative compounds of the present invention that were prepared by the procedures of the Examples were evaluated in binding assays against cells expressing the mouse and human H3 receptor by the following procedure.
An HT1080 cell line was produced that expresses the human H3 receptor. Expression of this receptor was provided by utilization of the RAGE methodology (Harrington et al., 2001) Nature Biotechol. 19:440-5. This cell line was transfected with the chimeric G-protein Gqαi5 (Conklin et al., 1993) Nature 363:274-6 to facilitate assessment of receptor activation through the analysis of intercellular Ca^++ levels using a fluorescence assay. The HT1080 cells expressing human histamine H3 receptor and Gqαi5 were grown in alpha-modified MEM containing 10% FBS, 3 ug/ml puromycin, 7 ug/ml blasticidin, and 3.2 uM methotrexate at 37° C. in 5% CO2/95% atmosphere.
(§2) Cells were washed with cold PBS buffer twice, scraped off the plates, and centrifuged at 1000×g for 5 minutes. Cells were resuspended in ice-cold buffer of 10 mM Tris, pH 7.4, 5 mM EDTA, protease inhibitor cocktail tablets (Roche Molecular Biochemicals) and incubated on ice for 10 minutes. The mixture was then homogenized with a dounce homogenizer or a polytron tissue grinder and centrifuged at 1000×g for 10 min at 4° C. The supernatant was centrifuged at 32,000×g for 30 min at 4° C. The membrane pellet was resuspended in a buffer of 50 mM Tris, pH 7.4 with protease inhibitor cocktail tablets and stored at −80° C. until use. Protein concentration was determined by the methods of Bradford.
(§3) Membranes were homogenized in buffer containing 50 mM Tris/HCl, 1 mM EDTA pH 7.4, and protease inhibitor cocktail tablets. Dissociation constants of radioligand (KD values) and maximum binding sites (Bmax) were determined in saturation binding experiments. Ki and IC50 were determined in competition binding assays using a fixed amount of radioligand.
(§4) Saturation binding assays were carried out in 96-well polypropylene plates in triplicate or quadruplicate. Reaction mixtures contained 100 μl of membrane suspension (˜100 μg/well), 50 μl of 4% DMSO, 50 μl of increasing amounts of [^3H]N^α-methylhistamine (final concentration of 0.01-20 nM). Nonspecific binding was defined with 10 uM clobenpropit. Competition binding assays were performed in a reaction mixture containing 100 μl of membrane suspension, 50 μl of [H]N^α-methylhistamine (final concentration of ˜2 nM), and 50 μl compounds. […] Incubations were carried out for 1.5 hours at room temperature. Reactions were terminated by rapid filtration over glass fibre GF/C filters (Perkin Elmers, MA) that had been presoaked in 0.3% PEI, using a Brandel cell harvester. The filters were washed with 500 ml of ice-cold buffer containing 50 mM Tris-HCl, pH 7.4, and were subsequently dried, impregnated with Meltilex wax scintillate (Perkin Elmers, MA) and counted with a Betaplate scintillation counter (Perkin Elmers, MA).
(§5) All data were analyzed by nonlinear least square curve fitting using Prism 4.0 software. The KD for [^3H]N^α-methylhistamine and the Bmax were derived from equation RL=RfL/(KD+L). RL is concentration of receptor-bound ligand at equilibrium, L is the free ligand concentration, Rf is the total receptor concentration. For competition binding experiments, IC50 (the concentration of compound producing 50% inhibition of specific binding) was derived from fitting to a 4-parameter logistic equation. Apparent Ki values were calculated using the Cheng-Prussof equation of Ki=IC50/(1+(L)/Kd), L is the ligand concentration. Agonist stimulation and antagonist inhibition in FLIPR were fitted to sigmoidal dose response using equation Y=Bottom+(Top-Bottom)/(1+10^((LogEC50-X))), X is the logarithm of concentration of compounds. Y is the response.
In general terms: Loss of bound radioactivity is the signal in a displacement assay; it reports binding, not function.

Test [2] deals with mouse H3 receptor (Mus musculus, UniProt P58406). Nature of the test: Radioligand competition binding assay, mouse H3 receptor. The following applies: competition binding vs [3H]Nα-methylhistamine (~2 nM), membranes of cells expressing mouse H3 receptor. On the procedure: as §1, §2, §3, §4, §5
Chain of mouse H3 receptor (P58406 whole entry): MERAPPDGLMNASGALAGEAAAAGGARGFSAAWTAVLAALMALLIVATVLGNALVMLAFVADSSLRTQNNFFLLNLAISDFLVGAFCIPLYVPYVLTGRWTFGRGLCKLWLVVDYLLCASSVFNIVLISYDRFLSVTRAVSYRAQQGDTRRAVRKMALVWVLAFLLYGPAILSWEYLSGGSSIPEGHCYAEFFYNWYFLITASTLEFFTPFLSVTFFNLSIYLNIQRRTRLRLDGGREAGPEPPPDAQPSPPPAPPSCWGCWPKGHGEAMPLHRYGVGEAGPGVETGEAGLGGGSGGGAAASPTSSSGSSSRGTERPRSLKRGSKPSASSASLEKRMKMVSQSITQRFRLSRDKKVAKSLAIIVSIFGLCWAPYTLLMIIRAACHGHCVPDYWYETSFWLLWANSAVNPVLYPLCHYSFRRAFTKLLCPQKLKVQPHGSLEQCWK

T1 sequence (Q9Y5N1 whole entry): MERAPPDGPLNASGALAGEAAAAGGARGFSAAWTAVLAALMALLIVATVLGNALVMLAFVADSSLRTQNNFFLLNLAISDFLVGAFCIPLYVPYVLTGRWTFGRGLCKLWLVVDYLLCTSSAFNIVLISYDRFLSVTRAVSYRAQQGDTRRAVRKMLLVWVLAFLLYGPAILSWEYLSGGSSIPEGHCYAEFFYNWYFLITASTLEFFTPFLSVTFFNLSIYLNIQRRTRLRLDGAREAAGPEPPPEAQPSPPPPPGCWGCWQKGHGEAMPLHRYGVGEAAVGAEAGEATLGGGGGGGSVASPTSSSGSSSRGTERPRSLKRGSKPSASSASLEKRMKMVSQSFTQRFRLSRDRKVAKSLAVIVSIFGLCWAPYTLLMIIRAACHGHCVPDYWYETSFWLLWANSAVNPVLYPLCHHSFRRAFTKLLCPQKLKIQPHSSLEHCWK

As to `O[C@H]1CCN(CCc2cc3cc(-c4c5c(nc6ccnn46)CCC5)ccc3o2)C1` [1-{2-[5-(6,7-Dihydro-5H-1,4,8a-triaza-s-indacen-8-yl)-benzofuran-2-yl]-ethyl}-pyrrolidin-3-(S)-ol], the negative-log Ki (pKi) in test [1] is above 7.30; in test [2], above 6.30.

As to `O[C@@H]1CCN(CCCOc2ccc(-c3c4c(nc5ccnn35)CCC4)cc2)C1` [1-{3-[4-(6,7-Dihydro-5H-1,4,8a-triaza-s-indacen-8-yl)-phenoxy]-propyl}-pyrrolidin-3-(R)-ol], the pKi in test [1] and in test [2] was above 7.30 throughout.

In the case of `O[C@H]1CCN(CCCOc2ccc(-c3c4c(nc5ccnn35)CCC4)cc2)C1` [1-{3-[4-(6,7-Dihydro-5H-1,4,8a-triaza-s-indacen-8-yl)-phenoxy]-propyl}-pyrrolidin-3-(S)-ol], the pKi in test [1] and in test [2] was above 7.30 each time.

For the compound `c1cc2nc3c(c(-c4ccc5oc(CCN6CCOCC6)cc5c4)n2n1)CCC3` [8-[2-(2-Morpholin-4-yl-ethyl)-benzofuran-5-yl]-6,7-dihydro-5H-1,4,8a-triaza-s-indacene], the negative logarithm of the Ki (pKi) in test [1] was above 7.30; in test [2], above 6.30.

Turning to `c1cc2nc3c(c(-c4ccc5oc(CCN6CCCCC6)cc5c4)n2n1)CCC3` [8-[2-(2-Piperidin-1-yl-ethyl)-benzofuran-5-yl]-6,7-dihydro-5H-1,4,8a-triaza-s-indacene], the pKi was above 7.30 in test [1] and above 6.30 in test [2].

Regarding `c1cc2nc3c(c(-c4ccc5oc(CCN6CCCC6)cc5c4)n2n1)CCC3` [8-[2-(2-Pyrrolidin-1-yl-ethyl)-benzofuran-5-yl]-6,7-dihydro-5H-1,4,8a-triaza-s-indacene], the results for the negative-log Ki (pKi) in test [1] and in test [2] were above 7.30 and above 6.30, respectively.

In the case of `c1cc2nc3c(c(-c4ccc(OCCCN5CCOCC5)cc4)n2n1)CCC3` [8-[4-(3-Morpholin-4-yl-propoxy)-phenyl]-6,7-dihydro-5H-1,4,8a-triaza-s-indacene], the pKi is above 7.30 in test [1] and above 6.30 in test [2].

Turning to `c1cc2nc3c(c(-c4ccc(OCCCN5CCCCC5)cc4)n2n1)CCC3` [8-[4-(3-Piperidin-1-yl-propoxy)-phenyl]-6,7-dihydro-5H-1,4,8a-triaza-s-indacene], the negative-log Ki (pKi) in test [1] and in test [2] was above 7.30 in each case.

On to `c1cc2nc3c(c(-c4ccc(OCCCN5CCCC5)cc4)n2n1)CCC3` [8-[4-(3-Pyrrolidin-1-yl-propoxy)-phenyl]-6,7-dihydro-5H-1,4,8a-triaza-s-indacene], for which the pKi in test [1] and in test [2] was above 7.30 throughout.

In the case of `C[C@@H]1CCCN1CCc1cc2cc(-c3c4c(nc5ccnn35)CCC4)ccc2o1` [8-{2-[2-(2-(R)-Methyl-pyrrolidin-1-yl)-ethyl]-benzofuran-5-yl}-6,7-dihydro-5H-1,4,8a-triaza-s-indacene], the pKi in test [1] and in test [2] was above 7.30 each time.

As for `COC[C@@H]1CCCN1CCc1cc2cc(-c3c4c(nc5ccnn35)CCC4)ccc2o1` [8-{2-[2-(2-(S)-Methoxymethyl-pyrrolidin-1-yl)-ethyl]-benzofuran-5-yl}-6,7-dihydro-5H-1,4,8a-triaza-s-indacene], the pKi in test [1] and in test [2] was above 7.30 each time.

With `CC1CCCN1CCc1cc2cc(-c3c4c(nc5ccnn35)CCC4)ccc2o1` (stereo not shown) [8-{2-[2-(2-Methyl-pyrrolidin-1-yl)-ethyl]-benzofuran-5-yl}-6,7-dihydro-5H-1,4,8a-triaza-s-indacene], the negative logarithm of the Ki (pKi) in test [1] and in test [2] was above 7.30 in each case.

Regarding `COC[C@H]1CCCN1CCc1cc2cc(-c3c4c(nc5ccnn35)CCC4)ccc2o1` [8-{2-[2-(R)-(2-Methoxymethyl-pyrrolidin-1-yl)-ethyl]-benzofuran-5-yl}-6,7-dihydro-5H-1,4,8a-triaza-s-indacene], the pKi in test [1] and in test [2] was above 6.30 in each case.

For the compound `C[C@@H]1CCCN1CCCOc1ccc(-c2c3c(nc4ccnn24)CCC3)cc1Cl` [8-{3-Chloro-4-[3-(2-(R)-methyl-pyrrolidin-1-yl)-propoxy]-phenyl}-6,7-dihydro-5H-1,4,8a-triaza-s-indacene], the negative-log Ki (pKi) in test [1] and in test [2] was above 7.30 in each case.

In the case of `CC1CCCN1CCCOc1ccc(-c2c3c(nc4ccnn24)COC3)cc1` (stereo not shown) [8-{4-[3-(2-Methyl-pyrrolidin-1-yl)-propoxy]-phenyl}-5H,7H-6-oxa-1,4,8a-triaza-s-indacene], the negative logarithm of the Ki (pKi) in test [1] and in test [2] was above 7.30 each time.

`CC1CCCN1CCCOc1ccc(-c2c3c(nc4ccnn24)CCC3)cc1` (stereo not shown) [8-{4-[3-(2-Methyl-pyrrolidin-1-yl)-propoxy]-phenyl}-6,7-dihydro-5H-1,4,8a-triaza-s-indacene]: the negative logarithm of the Ki (pKi) in test [1] and in test [2] was above 7.30 in each case.

Consider `c1cc2nc3c(c(-c4ccc5oc(CCN6CCOCC6)cc5c4)n2n1)CCCC3` [9-[2-(2-Morpholin-4-yl-ethyl)-benzofuran-5-yl]-5,6,7,8-tetrahydro-pyrazolo[5,1-b]quinazoline], for which the negative logarithm of the Ki (pKi) was above 7.30 in test [1] and above 6.30 in test [2].

As for `c1cc2nc3c(c(-c4ccc5oc(CCN6CCCCC6)cc5c4)n2n1)CCCC3` [9-[2-(2-Piperidin-1-yl-ethyl)-benzofuran-5-yl]-5,6,7,8-tetrahydro-pyrazolo[5,1-b]quinazoline], the negative-log Ki (pKi) was above 7.30 in test [1] and above 5.30 in test [2].

In the case of `c1cc2nc3c(c(-c4ccc5oc(CCN6CCCC6)cc5c4)n2n1)CCCC3` [9-[2-(2-Pyrrolidin-1-yl-ethyl)-benzofuran-5-yl]-5,6,7,8-tetrahydro-pyrazolo[5,1-b]quinazoline], the results for the negative-log Ki (pKi) in test [1] and in test [2] were above 6.30 and above 5.30, respectively.

On to `c1cc2nc3c(c(-c4ccc(OCCCN5CCOCC5)cc4)n2n1)CCCC3` [9-[4-(3-Morpholin-4-yl-propoxy)-phenyl]-5,6,7,8-tetrahydro-pyrazolo[5,1-b]quinazoline], for which the negative-log Ki (pKi) in test [1] and in test [2] was above 7.30 each time.

Turning to `c1cc2nc3c(c(-c4ccc(OCCCN5CCCCC5)cc4)n2n1)CCCC3` [9-[4-(3-Piperidin-1-yl-propoxy)-phenyl]-5,6,7,8-tetrahydro-pyrazolo[5,1-b]quinazoline], the pKi in test [1] and in test [2] was above 7.30 in each case.

Regarding `c1ccc2c(-c3ccc(OCCCN4CCCC4)cc3)c3c(nc2c1)CCCC3` [9-[4-(3-Pyrrolidin-1-yl-propoxy)-phenyl]-1,2,3,4-tetrahydro-acridine], the negative logarithm of the Ki (pKi) in test [1] was above 7.30; in test [2], above 6.30.

On to `c1cc2nc3c(c(-c4ccc(OCCCN5CCCC5)cc4)n2n1)CCCC3` [9-[4-(3-Pyrrolidin-1-yl-propoxy)-phenyl]-5,6,7,8-tetrahydro-pyrazolo[5,1-b]quinazoline], for which the pKi in test [1] and in test [2] was above 7.30 each time.

`CC1CCCN1CCCOc1cccc(-c2c3c(nc4ccnn24)CCCCC3)c1` (stereo not shown) [10-{3-[3-(2-Methyl-pyrrolidin-1-yl)-propoxy]-phenyl}-6,7,8,9-tetrahydro-5H-1,4,10a-triaza-cyclohepta[f]indene] had a negative-log Ki (pKi) in test [2] above 5.30.

In test [2], `COCCNCCCOc1ccc(-c2c3c(nc4ccnn24)CCCCC3)cc1` [(2-Methoxy-ethyl)-{3-[4-(6,7,8,9-tetrahydro-5H-1,4,10a-triaza-cyclohepta[f]inden-10-yl)-phenoxy]-propyl}-amine] had a negative-log Ki (pKi) above 5.30.

`CCN(CC)CCCOc1cccc(-c2c3c(nc4ccnn24)CCCCC3)c1` [Diethyl-{3-[3-(6,7,8,9-tetrahydro-5H-1,4,10a-triaza-cyclohepta[f]inden-10-yl)-phenoxy]-propyl}-amine] had a pKi in test [2] above 5.30.

The term pKi denotes the Ki on a negative log10 scale, so that one unit is a factor of ten. Higher therefore signals a low Ki.
